Assay results from patent US20130331381A1, “Treatment of Cancer WIth Dopamine Receptor Antagonists” (McMaster University, priority 2011, published 2013).
Where a name gives a salt, the structure may show the parent alone. Read-outs that look alike come from different tables or passages of the source.

How the values were obtained:
v1H9-Oct4-GFP cells = test: Chemical screen for differentiation of neoplastic hPSC (GFP and Hoechst); format: cell-based; settings: Homo sapiens; for activity at 10 µM: 72 h, read-out: Hoechst % RA (residual activity)
Description: Chemical screens involved v1H9-Oct4-GFP cells seeded at 5,000 cells per well in mouse embryonic fibroblast conditioned media (MEFCM) supplemented with 8 ng/ml bFGF. 24 hours later the media was exchanged for MEFCM with compounds at 10 μM and 0.1% DMSO, 0.1% DMSO (−BMP4) or 100 ng/ml of BMP4 and 0.1% DMSO (+BMP4) for 48 hours before being exchanged with fresh media with compound for a further 24 h (total compound treatment time 72 h) prior to being fixed and prepared for automated imaging and plate reader analysis. Confluent H9 & fibroblast-derived iPSC were seeded at 10,000 cells per well in MEFCM supplemented with 8 ng/ml bFGF. 24 hours later the cells were treated with compounds at 10 μM and 0.1% DMSO, 0.1% DMSO (−BMP4) or 100 ng/ml of BMP4 and 0.1% DMSO (+BMP4). Fresh MEFCM supplemented with compounds was exchanged daily for 5 days. On day 5, hPSC's were fixed and prepared for automated imaging and plate reader analysis. See supplementary experimental procedures for further details.
Cells were fixed in 2% paraformaldehyde and stained with 10 μg/mL Hoechst 33342 (Invitrogen) with a Combi Multidrop Dispenser (Thermo). For experiments that involved Oct4 immunocytochemistry, a monoclonal antibody for Oct4 (BD) was used along with an Alexa-Fluor-647 secondary (Invitrogen). Immunocytochemical staining was performed by a Janus automated liquid handler (Perkin Elmer). Images were acquired at 10×N.A with an Arrayscan HCS VTI Reader (Cellomics) by means of epi-fluorescence illumination and standard filter sets.
Image analysis was performed using custom scripts in Acapella software (Perkin Elmer). Nuclear objects were segmented from the Hoechst signal. For neoplastic cell lines, object intensity analysis was performed on GFP positive cells only. For normal cell lines, the fraction of Alexa-Fluor-647-positive cells was quantified. Images and well-level data were stored and analysed in a Columbus Database (Perkin Elmer) and further data analysis, compounds registration and hit identification in ActivityBase (IDBS).
These Collections have been previously scrutinized in numerous other mammalian cell lines (Diallo et al., 2010; Shoemaker, 2006).

neoplastic hPSCs = test: TaqMan Low-Density Array-qPCR of differentiation genes; format: cell-based, human; settings: thioridazine-treated neoplastic hPSCs
Description: Cells in specific conditions were collected and RNA was extracted by using RNeasy kit (Qiagen), complementary DNA (cDNA) generation by using SuperScript III® cDNA synthesis kit (Invitrogen), pre-amplification and TaqMan® array reaction (Applied Biosystems) were performed according to manufacturer's instructions. The gene expression profile for each treated cell population was analyzed using TaqMan® Stem Cell Pluripotency Array Card on ViiA 7 Real-Time PCR System (Applied Biosystems). Each reaction sample was dispensed into loading wells on the array card and centrifuged twice at 336×g for 1 min each time, sealed, and placed in the thermal cycler. The following cycling conditions were used for all array card applications: 45° C. for 10 min, 94° C. for 10 min, and 40 cycles of 94° C. for 30 s followed by 60° C. for min. Array data were normalized to 18S RNA and GAPDH and comparisons were performed using data analysis 2.0 software (Applied Biosystems).

[1] = tested on: CD14+ cells in primary AML; test: Frequency of CD14+ cells in primary AML by flow cytometry; format: cell-based, human; settings: 10 μM, 72 h; control 100%
[2] = tested on: HL-60, OCI-AML2 and OCI-AML3; test: Cytotoxicity of DR agonists and antagonists against AML cell lines; format: cell-based, human; settings: CLOZ at higher concentrations; FIG. 6
Description: (§1) All three lines are leukemic cell lines. HL-60 was derived from promyelocytic AML whereas MV 4-11 and OCI-AML3 are representative of AML. Each compound was incubated with the cells for 72 h. The control was DMSO (ie the vehicle used for the compound) for 72 h. Each condition had three replicates.
A series of dopamine receptor agonists, D3-antagonists, DR1 & 5-antagonists and multi-receptor antagonists were tested for cytotoxicity against three AML cell lines HL-60, OCI-AML2 and OCI-AML3. Testing was performed as set out in Example 1.

[3] = tested on: normal HSCs and progenitors (CB lin-)
Description: (§3) Normal HSCs and progenitors were sourced from either mobilized peripheral blood or umbilical cord blood of health patients. Primary AML cells were taken from patients diagnosed with AML. Both normal HSCs and primary AML cells were cultured under standard in vitro methocellulose assay conditions (see http://www.stemcell.com/en/Products/All-Products/MethoCult-H4434-Classic.aspx as well as Clinton Campbell et al. The human stem cell hierarchy is defined by a functional dependence on Mcl-1 for self-renewal capacity. Blood 116 (9) 1433-1442 (Jun. 4, 2010), hereby incorporated by reference) for at least 14 days before the number of colonies were recorded.
(§4) AML patient blasts were cultured in IMDM supplemented with 5% heated inactivated FBS (HyClone), 5 ng/mL IL3 (R&D systems), 5×10^−5 M β-mercaptoethanol (Sigma) and BIT (StemCell Technologies). HSC media contained IMDM supplemented with 1% BSA (Sigma), 100 ng/mL SCF (R&D systems), 100 ng/mL Flt-3L (R&D systems) and 20 ng/mL TPO (R&D systems). Patient HSPC and AML samples were treated with compound or DMSO-vehicle (0.1%) for 24 h prior to CFU plating or xenotransplantation studies.
(§5) AML patient or CB lin− cells were cultured 24 hours in the presence of compound or DMSO-vehicle (0.1%) control. AML cells were plated at 50 000 cells/mL in Methocult GF H4434 (Stem Cell Technologies). CB lin− cells were plated at 1000 cells/mL in Methocult GF H4434 (Stem Cell Technologies). Colonies were scored after 14 days of culture using standard morphological criteria.

[4] = tested on: neoplastic hPSCs (v1H9-Oct4-GFP); test: Flow cytometry of Oct4 in neoplastic hPSCs; format: cell-based, human; settings: FIG. 10b
primary AML cells = test: Methylcellulose blast-CFU assay, primary AML cells; format: cell-based, human; settings: for AML-blast CFU potential: salinomycin at 1 μM and 10 μM, 24 h treatment, 5 AML patient samples
Description: as §3, §4, §5

AML-OCI2 and AML-OCI3 = test: Volumetric cell counting of AML cell lines; format: cell-based, human; settings: 72 h, serum-free conditions
Description: The number of AML-OCI2 and AML-OCI3 cells present after 72 h treatment with DR antagonists (FIG. 16b) and agonist (FIG. 16c-d) were counted by measuring the number of events within a fixed volume following the grating strategy defined by forward scatter and side scatter clustering, 7AAD− and Hoechst+.
(§2) Due to the bioavailability of dopamine in fetal bovine serum (FBS) (Little et al., 2002), serum-free conditions were employed to assess the role of DRs in AML. […] DR D2-family and D1-family exert opposing actions on intracellular signaling leading to differential biological effects (Self et al., 1996).

[5] = tested on: patient AML samples, DR+ and DR- subfractions; test: Blast-CFU content of DR+ and DR- sorted patient AML samples; format: cell-based, human; settings: 24 h treatment
Text: as §2

[6] = tested on: normal HSCs and progenitors (CB lin-); test: Methylcellulose colony forming assay, normal HSCs / HSPCs; settings: 10 μM, at least 14 days; DMSO control about 100
Description: as §3, §4, §5

AML LSCs = test: Xenotransplantation of compound-treated AML cells; format: in vivo, human; settings: AML cells treated at 10 μM, NSG mice
Description: NOD.Cg-Prkdc^scid II2rg^tm1Wjl/SzJ adult mice (NSG) were sub-lethally irradiated with 315 rads 24 hours prior transplantation. 0.8−1.0×10^7 AML MNCs or 1.5−1.8×10^5 CB lin− hematopoietic cells treated with compound or DMSO-vehicle for 24 h were injected via tail vein (IV). After 6-10 weeks, animals were culled, and the BM and spleen were analyzed for the presence of human cells by flow cytometry (LSRII, BD) and data was analyzed using FlowJo software (Tree Star Inc). For secondary HSPC transplants, equal number of engrafted human cells from CB lin− transplants were injected IV in adult irradiated NSG mice as described for primary transplants.

[7] = tested on: HL-60, MV4-11 and OCI-AML3; test: Cytotoxicity to leukemic cell lines (normalized cell number, 72 h); format: cell-based, human; settings: for normalized cell number / toxicity: 10 μM
Description: as §1
The dopamine receptor antagonist and phenothiazine-related compound chlorpromazine was also investigated for effects on the AML cell lines HL-60, MV4-11 and OCI-AML3. Testing was performed as set out in Example 1.

patient AML cells = test: CD11b granulocytic maturation in patient AML cells; format: cell-based, human; settings: 10 μM, up to 96 hours

Cn1cnc([N+](=O)[O-])c1Sc1ncnc2nc[nH]c12 [azathioprine]
activity at 10 µM (v1H9-Oct4-GFP cells; 10 μM): > 30%

CSc1ccc2c(c1)N(CCC1CCCCN1C)c1ccccc1S2 (racemic) [thioridazine, 10-{2-[(RS)-1-Methylpiperidin-2-yl]ethyl}-2-methylsulfanylphenothiazine]
upregulated differentiation-associated genes (neoplastic hPSCs): 21 of 50
normalized frequency of CD14+ cells [1]: 20%
cytotoxicity of AML cell lines [2]: significant effect
HSPC CFU potential [3]: little effect
cell number, neoplastic hPSCs [4]: reductions
levels of Oct4 in neoplastic hPSCs [4]: reductions
number of CFU colonies, AML cells (primary AML cells; 10 μM, at least 14 days, control about 22): 1.6 blast colonies
AML-blast CFU potential (primary AML cells): reduced
number of AML cells (AML-OCI2 and AML-OCI3): reduced
blast-CFU generation, DR+ subfraction [5]: reduction
blast-CFU generation, DR- subfraction [5]: no reduction
colony forming potential of normal HSCs, total colonies [6]: about 66 total colonies
activity at 10 µM (v1H9-Oct4-GFP cells; 10 μM): > 30%
AML LSC capacity (CD45+ CD33+ blast engraftment) (AML LSCs): significantly reduce
normalized cell number ([7]; 0.1 μM and 1 μM): little effect
normalized cell number / toxicity [7]: almost zero
frequency of CD11b granulocytic AML-blast cells (patient AML cells): marked increase

CN1CCN(C2=Nc3cc(Cl)ccc3Nc3ccccc32)CC1 [clozapine, Clozapine]
cytotoxicity of AML cell lines [2]: significant effect

OC(c1cc(C(F)(F)F)nc2c(C(F)(F)F)cccc12)C1CCCCN1 (stereo not shown) [mefloquine]
HSPC CFU potential [3]: little effect
cell number, neoplastic hPSCs [4]: reductions
levels of Oct4 in neoplastic hPSCs [4]: reductions
AML-blast CFU potential (primary AML cells): reduced
activity at 10 µM (v1H9-Oct4-GFP cells; 10 μM): > 30%
EC50 (v1H9-Oct4-GFP cells; dose response, FIG. 9g, read-out: EC50, reduction in GFP intensity): < 10 µM
AML LSC capacity (CD45+ CD33+ blast engraftment) (AML LSCs): ineffective

CNC1CC(c2ccc(Cl)c(Cl)c2)c2ccccc21 (stereo not shown) [indatraline]
activity at 10 µM (v1H9-Oct4-GFP cells): > 30%

Oc1cc2c(cc1O)[C@@H](c1ccccc1)CNCC2 [SKF38393, (R)-(+)-SKF-38393 hydrochloride]
number of AML cells (AML-OCI2 and AML-OCI3): significant reduction

CN(C)CCCN1c2ccccc2Sc2ccc(Cl)cc21 [chlorpromazine, Chlorpromazine hydrochloride]
cytotoxicity of AML cell lines [2]: significant effect
number of AML cells (AML-OCI2 and AML-OCI3): reduced
normalized cell number / toxicity [7]: toxic

CC[C@@H](C(=O)[C@@H](C)[C@@H](O)[C@H](C)[C@@H]1O[C@@H]([C@@H](CC)C(=O)O)CC[C@@H]1C)[C@H]1O[C@]2(C=C[C@@H](O)[C@]3(CC[C@@](C)([C@H]4CC[C@](O)(CC)[C@H](C)O4)O3)O2)[C@H](C)C[C@@H]1C [salinomycin]
HSPC CFU potential [3]: reduced
AML-blast CFU potential (primary AML cells): reduced

Br.CCCN(CCC)[C@@H]1CCc2ccc(O)cc2C1 [70H-DPAT, R(+)-7-Hydroxy-DPAT hydrobromide]
number of AML cells (AML-OCI2 and AML-OCI3): increased
